The nature of the data set: Evaluation for coagulation-precipitation of flavan compounds and proteins (peptides), Reference Example. In kind it is physicochemical. Also on record: key: +: The precipitation was remarkably observed; ±: The precipitation was slightly observed; −: Not observed. The settings on record: room temperature, one week. How it is done:
Then, an aqueous solution of each of the pine bark extract, the proanthocyanidin dry powder, and epigallocatechin (produced by Roche Vitamins Japan K.K.) was prepared such that a final concentration was 0.2 wt %, as a first liquid. Separately, collagen (having an average molecular weight of 300 thousands: produced by KOKEN CO., LTD), Nippi Peptide PA-100 (having an average molecular weight of 10,000: produced by Nippi, incorporated), Collagen peptide DS (having an average molecular weight of 7,000: produced by Kyowa. […] At room temperature, 1 mL of first liquid and 1 mL of second liquid were mixed. The resultant liquid mixture was allowed to stand at room temperature for one week, and it was visually observed whether or not precipitation or suspension was caused in the liquid mixture.

The mark [1] stands for this setting: second liquid: collagen average MW 300,000.
The mark [2] stands for this setting: second liquid: collagen peptide average MW 1,000.
Setting [3] is: second liquid: collagen peptide average MW 3,000.
[4] abbreviates: second liquid: collagen peptide average MW 5,000.
Setting [5] is: second liquid: collagen peptide average MW 7,000.
The mark [6] stands for this setting: second liquid: collagen peptide average MW 10,000.

Epigallocatechin gallate: the Precipitation entry (0.2 wt % first liquid 1 mL + 1 mL 10.0 wt % second liquid: glycine (MW 75), visual) is recorded as “−”; the Precipitation result under setting [1] is “+”; the Precipitation entry under setting [2] is reported as “−”; the Precipitation entry under setting [3] is recorded as “−”; the Precipitation entry under setting [4] is given as “−”; the Precipitation entry under setting [5] was “−”. For the same substance, the Precipitation entry under setting [6] is on record as “±”. Further, the Suspension result is, setting by setting: under setting [1], “+”; under setting [2], “−”; under setting [3], “−”; under setting [4], “−”; under setting [5], “−”; under setting [6], “+”. Moreover, for the setting “second liquid: glycine (MW 75)”, the Suspension entry is on record as “−”.
